Reference: patent US12303497B2, “Anti-androgens for the treatment of metastatic castration-sensitive prostate cancer” (priority 2019, dated 2025)

Key:
AR = AR (Homo sapiens, UniProt P10275); details: cited from earlier work
T877A AR mutant = T877A AR mutant (Homo sapiens, UniProt P10275, T878A); details: literature; cited from earlier work
Plasma protein binding = format: in vitro ADME
[1] = Single oral administration of radiolabeled apalutamide (AUC share, excretion); format: in vivo
[2] = tested on: multidrug and toxin extrusions (MATEs); assay: In vitro transporter inhibition; format: in vitro ADME
[3] = human, in vivo
P-gp = P-gp (Homo sapiens, UniProt P08183); details: not told
P-gp, sequence (P08183 whole entry): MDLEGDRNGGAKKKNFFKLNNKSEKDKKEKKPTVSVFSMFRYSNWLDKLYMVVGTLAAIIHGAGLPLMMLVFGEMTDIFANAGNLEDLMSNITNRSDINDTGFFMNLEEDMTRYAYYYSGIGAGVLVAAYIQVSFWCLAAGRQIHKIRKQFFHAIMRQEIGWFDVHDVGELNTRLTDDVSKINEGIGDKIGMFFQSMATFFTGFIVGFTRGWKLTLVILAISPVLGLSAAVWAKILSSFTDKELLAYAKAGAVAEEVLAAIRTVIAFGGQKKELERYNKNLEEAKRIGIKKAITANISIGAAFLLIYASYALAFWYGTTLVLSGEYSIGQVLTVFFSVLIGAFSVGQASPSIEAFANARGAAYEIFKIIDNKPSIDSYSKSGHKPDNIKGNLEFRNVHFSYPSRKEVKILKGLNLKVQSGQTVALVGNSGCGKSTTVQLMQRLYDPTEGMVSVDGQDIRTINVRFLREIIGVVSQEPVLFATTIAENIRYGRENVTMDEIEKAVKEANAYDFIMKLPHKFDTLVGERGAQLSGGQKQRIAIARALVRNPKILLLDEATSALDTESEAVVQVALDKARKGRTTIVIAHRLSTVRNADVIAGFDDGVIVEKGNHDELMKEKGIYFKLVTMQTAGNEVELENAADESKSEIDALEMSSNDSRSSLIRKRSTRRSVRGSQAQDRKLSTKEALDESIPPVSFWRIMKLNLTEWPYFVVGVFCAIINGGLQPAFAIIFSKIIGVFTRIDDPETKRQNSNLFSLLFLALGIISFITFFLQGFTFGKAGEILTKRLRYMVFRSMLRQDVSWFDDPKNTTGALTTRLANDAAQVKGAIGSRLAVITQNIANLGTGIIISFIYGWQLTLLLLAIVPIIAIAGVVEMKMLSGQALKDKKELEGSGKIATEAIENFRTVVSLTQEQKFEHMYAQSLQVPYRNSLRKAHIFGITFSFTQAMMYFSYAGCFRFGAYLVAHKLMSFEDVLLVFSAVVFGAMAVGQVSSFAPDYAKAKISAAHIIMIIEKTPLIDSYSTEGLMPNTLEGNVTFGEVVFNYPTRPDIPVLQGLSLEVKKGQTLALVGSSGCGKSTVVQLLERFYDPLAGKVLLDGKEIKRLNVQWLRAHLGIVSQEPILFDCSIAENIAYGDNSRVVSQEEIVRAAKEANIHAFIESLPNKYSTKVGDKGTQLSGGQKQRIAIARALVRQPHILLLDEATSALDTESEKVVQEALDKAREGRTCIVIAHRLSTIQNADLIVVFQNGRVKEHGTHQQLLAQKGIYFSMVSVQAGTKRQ

BCRP = BCRP (Homo sapiens, UniProt Q9UNQ0); details: not told
OATP1B1 = OATP1B1 (Homo sapiens, UniProt Q9Y6L6)
OATP1B3 = OATP1B3 (Homo sapiens, UniProt Q9NPD5)
CYP2B6 = CYP2B6 (Homo sapiens, UniProt P20813)
CYP2B6, sequence (P20813 whole entry): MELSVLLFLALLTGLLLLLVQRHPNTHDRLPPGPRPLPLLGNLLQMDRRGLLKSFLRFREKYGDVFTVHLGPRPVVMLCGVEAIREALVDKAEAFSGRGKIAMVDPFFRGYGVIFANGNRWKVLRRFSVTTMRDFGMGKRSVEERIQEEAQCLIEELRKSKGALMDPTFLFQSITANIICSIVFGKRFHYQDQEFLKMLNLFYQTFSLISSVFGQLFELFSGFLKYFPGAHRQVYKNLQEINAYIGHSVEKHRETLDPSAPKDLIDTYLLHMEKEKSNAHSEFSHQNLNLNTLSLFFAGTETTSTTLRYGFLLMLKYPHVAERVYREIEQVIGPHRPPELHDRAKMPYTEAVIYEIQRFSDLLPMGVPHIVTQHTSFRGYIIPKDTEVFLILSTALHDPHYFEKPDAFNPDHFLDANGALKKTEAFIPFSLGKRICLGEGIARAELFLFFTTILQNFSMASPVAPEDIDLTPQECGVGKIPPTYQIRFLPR

CYP2C8 = biological target: T1, CYP2C8 (Homo sapiens, UniProt P10632)
T1 sequence (P10632 1-490): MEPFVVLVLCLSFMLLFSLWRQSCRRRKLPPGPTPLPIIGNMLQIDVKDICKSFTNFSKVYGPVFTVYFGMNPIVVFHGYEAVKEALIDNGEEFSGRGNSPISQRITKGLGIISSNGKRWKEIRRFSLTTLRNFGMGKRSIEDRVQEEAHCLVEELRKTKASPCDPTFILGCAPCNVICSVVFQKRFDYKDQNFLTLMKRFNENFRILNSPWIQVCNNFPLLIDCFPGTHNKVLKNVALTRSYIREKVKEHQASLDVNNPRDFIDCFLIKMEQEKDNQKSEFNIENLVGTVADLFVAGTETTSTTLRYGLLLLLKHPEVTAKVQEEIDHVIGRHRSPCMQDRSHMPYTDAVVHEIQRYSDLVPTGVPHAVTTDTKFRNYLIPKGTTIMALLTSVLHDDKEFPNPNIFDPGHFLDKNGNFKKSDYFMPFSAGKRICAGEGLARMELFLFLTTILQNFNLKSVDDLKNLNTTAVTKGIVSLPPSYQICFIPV

CYP2C9 = CYP2C9 (Homo sapiens, UniProt P11712)
CYP2C9, sequence (P11712 whole entry): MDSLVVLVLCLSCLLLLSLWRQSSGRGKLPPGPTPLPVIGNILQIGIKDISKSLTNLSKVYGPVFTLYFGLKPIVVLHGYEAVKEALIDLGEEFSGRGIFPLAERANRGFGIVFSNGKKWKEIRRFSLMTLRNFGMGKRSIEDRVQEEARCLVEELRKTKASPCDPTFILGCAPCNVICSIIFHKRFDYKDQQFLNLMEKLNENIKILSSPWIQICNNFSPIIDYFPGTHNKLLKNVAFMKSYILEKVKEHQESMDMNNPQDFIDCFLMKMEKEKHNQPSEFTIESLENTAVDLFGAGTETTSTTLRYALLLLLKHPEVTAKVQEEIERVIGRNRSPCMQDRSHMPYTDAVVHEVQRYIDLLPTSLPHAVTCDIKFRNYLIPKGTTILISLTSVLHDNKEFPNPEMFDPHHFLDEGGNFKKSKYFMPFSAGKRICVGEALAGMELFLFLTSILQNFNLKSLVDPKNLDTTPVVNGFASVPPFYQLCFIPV

CYP2C19 = CYP2C19 (Homo sapiens, UniProt P33261)
CYP3A4 = CYP3A4 (Homo sapiens, UniProt P08684)
CYP2D6 = CYP2D6 (Homo sapiens, UniProt P10635)
[4] = biological target: organic cation transporter 2 (OCT2) (Homo sapiens, UniProt O15244)
organic cation transporter 2 (OCT2), sequence (O15244 whole entry): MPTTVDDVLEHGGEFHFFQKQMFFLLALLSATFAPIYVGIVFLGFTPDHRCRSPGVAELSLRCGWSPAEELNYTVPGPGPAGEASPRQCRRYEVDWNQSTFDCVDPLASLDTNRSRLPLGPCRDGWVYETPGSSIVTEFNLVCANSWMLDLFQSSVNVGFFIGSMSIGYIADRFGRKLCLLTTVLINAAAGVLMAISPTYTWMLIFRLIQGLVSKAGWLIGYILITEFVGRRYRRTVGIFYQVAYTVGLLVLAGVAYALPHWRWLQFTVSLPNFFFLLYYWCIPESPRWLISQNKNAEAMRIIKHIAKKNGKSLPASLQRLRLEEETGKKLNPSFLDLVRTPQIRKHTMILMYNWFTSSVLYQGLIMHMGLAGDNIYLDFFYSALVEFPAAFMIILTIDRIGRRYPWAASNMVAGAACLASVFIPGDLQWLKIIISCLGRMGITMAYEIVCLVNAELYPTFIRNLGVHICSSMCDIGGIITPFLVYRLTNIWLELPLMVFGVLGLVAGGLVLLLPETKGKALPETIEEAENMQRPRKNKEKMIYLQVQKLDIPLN

[5] = biological target: organic anion transporter 3 (OAT3) (Homo sapiens, UniProt Q8TCC7)
organic anion transporter 3 (OAT3), sequence (Q8TCC7 whole entry): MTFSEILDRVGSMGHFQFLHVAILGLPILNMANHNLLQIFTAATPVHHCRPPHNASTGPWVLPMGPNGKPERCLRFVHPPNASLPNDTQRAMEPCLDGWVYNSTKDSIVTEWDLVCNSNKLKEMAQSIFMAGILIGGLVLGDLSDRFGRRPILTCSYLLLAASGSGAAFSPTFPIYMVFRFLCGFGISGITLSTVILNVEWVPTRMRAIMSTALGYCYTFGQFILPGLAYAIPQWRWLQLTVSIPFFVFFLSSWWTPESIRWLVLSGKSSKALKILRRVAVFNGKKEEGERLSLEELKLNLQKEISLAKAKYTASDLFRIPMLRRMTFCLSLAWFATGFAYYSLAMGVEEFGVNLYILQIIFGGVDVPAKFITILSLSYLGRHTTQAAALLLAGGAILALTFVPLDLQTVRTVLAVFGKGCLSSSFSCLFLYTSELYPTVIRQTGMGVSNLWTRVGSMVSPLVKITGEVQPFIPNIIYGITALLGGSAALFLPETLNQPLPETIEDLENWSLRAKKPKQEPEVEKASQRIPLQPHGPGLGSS

[6] = biological target: organic anion transporter 1 (Homo sapiens, UniProt Q4U2R8)
organic anion transporter 1, sequence (Q4U2R8 whole entry): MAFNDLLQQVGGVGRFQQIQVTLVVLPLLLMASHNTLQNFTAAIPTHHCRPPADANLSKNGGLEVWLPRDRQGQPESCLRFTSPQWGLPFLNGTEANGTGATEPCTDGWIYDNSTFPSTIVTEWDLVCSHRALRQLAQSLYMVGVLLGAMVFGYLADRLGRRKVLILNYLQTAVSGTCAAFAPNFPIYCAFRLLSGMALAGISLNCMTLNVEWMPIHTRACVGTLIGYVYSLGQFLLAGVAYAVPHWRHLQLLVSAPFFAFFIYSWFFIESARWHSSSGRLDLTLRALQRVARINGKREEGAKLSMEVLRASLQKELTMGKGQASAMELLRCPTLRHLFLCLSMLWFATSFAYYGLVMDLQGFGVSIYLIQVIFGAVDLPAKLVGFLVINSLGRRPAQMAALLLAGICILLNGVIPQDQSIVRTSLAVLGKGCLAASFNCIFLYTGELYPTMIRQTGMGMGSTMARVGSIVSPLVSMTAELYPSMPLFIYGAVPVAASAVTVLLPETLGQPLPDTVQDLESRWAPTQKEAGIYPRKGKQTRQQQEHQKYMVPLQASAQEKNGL

CYP1A2 = CYP1A2 (Homo sapiens, UniProt P05177); assay: In vitro effect on CYP; details: therapeutically relevant concentrations
[7] = up to 70 days after single oral radiolabeled dose

T877A AR mutant, sequence (P10275 whole entry T878A): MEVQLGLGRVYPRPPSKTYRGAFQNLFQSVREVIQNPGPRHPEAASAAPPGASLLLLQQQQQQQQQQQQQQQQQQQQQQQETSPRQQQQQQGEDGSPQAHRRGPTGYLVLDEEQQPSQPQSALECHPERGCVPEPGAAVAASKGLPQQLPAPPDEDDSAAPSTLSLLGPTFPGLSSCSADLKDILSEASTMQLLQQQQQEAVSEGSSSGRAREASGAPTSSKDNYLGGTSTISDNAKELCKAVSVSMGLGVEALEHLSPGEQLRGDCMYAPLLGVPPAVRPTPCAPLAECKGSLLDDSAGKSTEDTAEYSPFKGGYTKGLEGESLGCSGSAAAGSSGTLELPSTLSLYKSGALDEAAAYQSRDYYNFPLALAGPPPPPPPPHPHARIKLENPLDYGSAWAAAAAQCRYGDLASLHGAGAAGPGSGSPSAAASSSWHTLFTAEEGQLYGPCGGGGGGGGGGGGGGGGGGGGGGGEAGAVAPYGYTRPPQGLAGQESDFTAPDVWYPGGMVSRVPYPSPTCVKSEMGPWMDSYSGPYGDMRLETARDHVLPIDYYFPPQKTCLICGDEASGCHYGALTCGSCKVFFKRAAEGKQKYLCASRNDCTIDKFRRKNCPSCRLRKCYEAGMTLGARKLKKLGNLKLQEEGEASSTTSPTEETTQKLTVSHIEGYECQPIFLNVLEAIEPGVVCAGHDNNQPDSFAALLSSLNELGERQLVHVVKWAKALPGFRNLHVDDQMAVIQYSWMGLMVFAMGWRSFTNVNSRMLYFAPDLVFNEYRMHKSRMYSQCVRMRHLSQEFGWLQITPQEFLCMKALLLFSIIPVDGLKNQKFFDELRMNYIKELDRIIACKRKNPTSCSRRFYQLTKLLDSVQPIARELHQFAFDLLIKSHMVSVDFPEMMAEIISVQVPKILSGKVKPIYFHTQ
AR, sequence (P10275 whole entry): as the sequence (P10275 whole entry T878A) above, with A878T counted along it

CC(O)c1cc(C(=O)N[C@@H](C)Cn2ccc(-c3ccc(C#N)c(Cl)c3)n2)n[nH]1 (mixture of isomers) [Darolutamide, N-{(2S)-1-[3-(3-chloro-4-cyanophenyl)-1H-pyrazol-1-yl]propan-2-yl}-5-(1-hydroxyethyl)-1H-pyrazole-3-carboxamide]
Affinity of binding to AR (AR): high affinity

CC(C)(O)C(=O)Nc1ccc([N+](=O)[O-])c(C(F)(F)F)c1 [hydroxyflutamide]
Activity in T877A AR mutant (T877A AR mutant): AR agonists

N-desmethyl apalutamide
Bound to plasma proteins (Plasma protein binding): 95% | Share of the total AUC ([1]; single oral radiolabeled apalutamide 240 mg): 44% | Dose recovered in feces as this compound [1, 7]: 2% | Dose recovered in urine as this compound [1, 7]: 2.7% | Inhibition of MATEs [2]: inhibit | AUC at steady-state, mean [3]: 124 µg·h/mL | Cmax at steady-state, mean [3]: 5.9 µg/mL | Pharmacokinetics in specific populations [3]: No clinically significant differences | Substrate for P-gp (P-gp): substrates | Substrate for BCRP (BCRP): not | Substrate for OATP1B1 (OATP1B1): not | Substrate for OATP1B3 (OATP1B3): not | CYP2B6 inhibition (CYP2B6): moderate inhibitors | CYP2C8 inhibition (CYP2C8): moderate inhibitors | CYP2C9 inhibition (CYP2C9): weak inhibitors | CYP2C19 inhibition (CYP2C19): weak inhibitors | CYP3A4 inhibition (CYP3A4): weak inhibitors | Effect on CYP2D6 (CYP2D6): do not affect | Inhibition of OCT2 [4]: inhibit | Inhibition of OAT3 [5]: inhibit | Inhibition of organic anion transporter 1 [6]: do not inhibit | Effect on CYP1A2 (CYP1A2): do not affect
